Read-outs that look alike come from different tables or passages of the source.
Assays:
[1] = Hydrolysis Assay of Example A1 (conversion by LCMS); format: physicochemical; settings: for Conversion (%) / Notes (hydrolysis): 0.5 mM, 0-24 h
Protocol: The hydrolysis kinetics was under a certain temperature and measured by LCMS at a certain time interval. The corresponding LCMS chromatograms were recorded and the conversions were calculated. The hydrolysis conditions and the data were summarized in below table. LCMS spectra were obtained using Agilent 1200/G1956A or SHIMADZU LCMS-2020. Standard LCMS conditions were as follows (running time 1.55 minutes): • Acidic condition: Mobile Phase A: 0.0375% TFA in water (v/v). Mobile Phase B: 0.01875% TFA in acetonitrile (v/v); Column: Kinetex EVO C18 30*2.1 mm, 5 μm. • Basic condition: Mobile Phase A: 0.025% NH3·H2O in water (v/v). Mobile Phase B: Acetonitrile; Column: Kinetex EVO C18 2.1×30 mm, 5 μm. • Conversion (%)=peak area 1/(peak area 1+peak area 2)*100%, peak area 1 is the integration of hydrolyzed product, peak area 2 is the integration of starting material.

[2] = Pharmacokinetics of 043 and 001 in mice after oral 043 (75 mg/kg); format: in vivo, male C57BL/6 mice; settings: analyte = label, single oral administration of 043, 75 mg/kg, male C57BL/6 mice
Protocol: Total twelve male mice were used in this study. […] The formulation vehicle used was normal saline.
The plasma and brain concentration-time data of 043 and 001 was used for the pharmacokinetic analysis.
The extraction procedure for plasma/brain samples and the spiked plasma/brain calibration standards were identical:
A 25 μL of study sample plasma/brain (dilution applied to some samples) or spiked plasma calibration standard was added to individual pre-labeled micro-centrifuge tubes followed by 100 μL of internal standard prepared in acetonitrile (Glipizide-500 ng/mL) was added except for blank, where 100 μL of acetonitrile was added. Samples were vortexed for 5 minutes. Samples were centrifuged for 10 minutes at a speed of 4000 rpm at 4° C. Following centrifugation, 100 μL of clear supernatant was transferred in 96 well plates and analyzed using LC-MS/MS.

[3] = Protocol: Male C57/BL6 mice were used to evaluate each compound, with n=3 mice/time point.
Animals were administered through intravenous route with solution formulation at 2 mg/kg dose. […] Following blood collection, immediately, animals were sacrificed, and vena-cava was cut open and blood was drained. […] Brain samples were collected from set of three mice at each time point. […] Brain samples were homogenized using 2 volumes of ice-cold PBS (pH-7.4) of brain weight. […] Concentrations of compound (or compound and metabolite) in mouse plasma and brain samples were determined by fit for purpose LC-MS/MS method.

[4] = Oral dose pharmacokinetic study in mice (10 mg/kg); format: in vivo, male C57BL/6 mice
From the text: The formulation vehicle used was normal saline.

[5] = 2 mg/kg iv of labelled compound, rat
Protocol: Brain samples were homogenized with PBS (W/V, 1:3). Plasma/brain samples were mixed with acetonitrile containing internal standard. The samples were vortexed then centrifuged at 4 degrees Celsius for 15 minutes. The supernatant was diluted with water (1:2 V/V) and analyzed by LC/MS/MS for quantitative analysis. […] Area under the curve (AUC) was calculated and divided by dose to account for molecular weight difference of prodrug and metabolite (AUC/D).

[6] = Plasma Stability Assay of Example A4, rat plasma; settings: 37° C., 10 μM
[7] = Plasma Stability Assay of Example A3, mouse plasma; settings: 5 μM, 37° C., % of prodrug compound remaining
[8] = Plasma Stability Assay of Example A3, human plasma; settings: 5 μM, 37° C., % of prodrug compound remaining
[9] = Plasma Stability Assay of Example A4, human plasma; settings: 37° C., 10 μM
[10] = in vivo; cited from earlier work
[11] = 2 mg/kg iv of labelled compound, mice
[12] = 10 mg/kg po of labelled compound, mice

In the case of COc1ccc([C@@]23CCC(=O)C[C@@H]2N(C)CC3)cc1OC [Compound 001, mesembrine, reference compound], the “hydrolysis in the Hydrolysis Assay” value ([1]; pH 2.0 in 0.01 M HCl to pH 7.4 in 20 mM PBS, 25° C. to 40° C.) is reported as “did not further hydrolyze”, the “Conversion (%)” value ([1]; pH = 2.0, 25° C., 0.01M HCl) is reported as 0% and the “Notes (hydrolysis)” value ([1]; pH = 2.0, 25° C., 0.01M HCl) is reported as “Stable”. For the same molecule, the “Conversion (%)” value ([1]; pH = 2.0, 40° C., 0.01M HCl) was 0%, the “Notes (hydrolysis)” value ([1]; pH = 2.0, 40° C., 0.01M HCl) was “Stable” and the “Conversion (%)” value ([1]; pH = 7.4, 25° C., PBS (20 mM)) was 0%. The “Notes (hydrolysis)” value ([1]; pH = 7.4, 25° C., PBS (20 mM)) was “Stable”, the “Conversion (%)” value ([1]; pH = 7.4, 40° C., PBS (20 mM)) was 0% and the “Notes (hydrolysis)” value ([1]; pH = 7.4, 40° C., PBS (20 mM)) was “Stable”. For the same molecule, the “Brain concentrations quantifiable up to” value [2] was 4 h, the “brain exposure-Kp” value [2] was 2.55 and the AUClast ([2]; brain) was 498.04 ng·h/mL. It also gave a Cmax ([2]; brain) of 602.12 ng/mL, a Tmax ([2]; brain) of 30 min and an AUClast ([2]; plasma) of 195.38 ng·h/mL. For the same molecule, the Cmax ([2]; plasma) was 230.83 ng/mL, the Tmax ([2]; plasma) was 30 min and the “quantifiable levels of 001 in brain up to” value [3, 11] was 60 min. The “quantifiable levels of 001 in plasma up to” value [3, 11] was 30 min, the “Plasma levels of 001” value ([3]; at 60, 120, 180 min, 2 mg/kg iv of 001, mice) was “not detectable” and the “Brain levels of 001” value ([3]; at 120, 180 min, 2 mg/kg iv of 001, mice) was “not detectable”. The “001 quantifiable in brain up to” value [4, 12] was 60 min, the “001 quantifiable in plasma up to” value [4, 12] was 2 h and the “Brain levels of 001” value ([4]; at 90, 120, 180 min, 10 mg/kg po of 001, mice) was “not detectable”. For the same molecule, the “Plasma levels of 001” value ([4]; at 180 min, 10 mg/kg po of 001, mice) was “not detectable”, the “bioavailability (% F)” value ([4]; mice, oral 10 mg/kg) was under 10% and the “001 brain levels quantifiable up to” value [5] was 2 h. For the same molecule, the “Compound 001 (%) (metabolite mesembrine), Rat Plasma” value (“Compound 001 (%) … Rat Plasma” for short) ([6]; time 0.0 min) was 100.0%, the “Compound 001 (%) … Rat Plasma” value ([6]; time 10 min) was over 99% and the “Compound 001 (%) … Rat Plasma” value ([6]; time 30 min) was over 99%. The “Compound 001 (%) … Rat Plasma” value ([6]; time 60 min) was 97.3%, the “Compound 001 (%) … Rat Plasma” value ([6]; time 120 min) was over 99% and the “Compound 001 (%) … Rat Plasma” value ([6]; time 240 min) was 98.3%. For the same molecule, the “Mouse Plasma Prodrug (%)” value ([7]; 0 min) was 100.0%, the “Mouse Plasma Prodrug (%)” value ([7]; 15 min) was over 99% and the “Mouse Plasma Prodrug (%)” value ([7]; 30 min) was 97.8%. For the same molecule, the “Mouse Plasma Prodrug (%)” value ([7]; 60 min) was over 99%, the “Mouse Plasma Prodrug (%)” value ([7]; 120 min) was over 99% and the “Mouse Plasma Prodrug (%)” value ([7]; 240 min) was over 99%. The “Human Plasma Prodrug (%)” value ([8]; 0 min) was 100.0%, the “Human Plasma Prodrug (%)” value ([8]; 15 min) was over 99% and the “Human Plasma Prodrug (%)” value ([8]; 30 min) was over 99%. For the same molecule, the “Human Plasma Prodrug (%)” value ([8]; 60 min) was over 99%, the “Human Plasma Prodrug (%)” value ([8]; 120 min) was over 99% and the “Human Plasma Prodrug (%)” value ([8]; 240 min) was over 99%. For the same molecule, the “Compound 001 (%) (metabolite mesembrine), Human Plasma” value (“Compound 001 (%) … Human Plasma” below) ([9]; time 0.0 min) was 100.0%, the “Compound 001 (%) … Human Plasma” value ([9]; time 10 min) was over 99% and the “Compound 001 (%) … Human Plasma” value ([9]; time 30 min) was over 99%. The “Compound 001 (%) … Human Plasma” value ([9]; time 60 min) was over 99%, the “Compound 001 (%) … Human Plasma” value ([9]; time 120 min) was over 99% and the “Compound 001 (%) … Human Plasma” value ([9]; time 240 min) was over 99%.

In the case of (−) mesembrine, the half-life in plasma [10] is listed as “less than 2 hours”.

From patent publication US20250051277A1, “DELIVERY OF THERAPEUTIC ALKALOID COMPOUNDS” (Sensorium Therapeutics, Inc., priority 2021, published 2025)
